Source: US7667022B2, “Promoter for high-throughput screening for inhibitors against Mycobacteria under low carbon conditions” (Council of Scientific & Industrial Research, priority 2003, dated 2010)

Test system: Mycobacterium smegmatis, mc^2155
Assay: Percent inhibition of growth of liquid culture (optical density vs control without antibiotic) at 2% or 0.02% glucose
Assay type: cell-based
Details: for % inhibition of growth at 0.02% Glucose: 0.02% Glucose (starved)

SMILES: CC[C@@H](CO)NCCN[C@@H](CC)CO [Ethambutol]
- % inhibition of growth at 0.02% Glucose (0.15 μgm/ml): 37%
- % inhibition of growth at 2% Glucose (0.15 μgm/ml): 44%
- % inhibition of growth at 0.02% Glucose (0.31 μgm/ml): 66%
- % inhibition of growth at 2% Glucose (0.31 μgm/ml): 85%
- % inhibition of growth at 0.02% Glucose (0.63 μgm/ml): 68%
- % inhibition of growth at 2% Glucose (0.63 μgm/ml): 91%
- % inhibition of growth at 0.02% Glucose (1.25 μgm/ml): 72%
- % inhibition of growth at 2% Glucose (1.25 μgm/ml): 93%

SMILES: NNC(=O)c1ccncc1 [Isoniazide]
- % inhibition of growth at 0.02% Glucose (0.8 μgm/ml): 12%
- % inhibition of growth at 2% Glucose (0.8 μgm/ml): 33%
- % inhibition of growth at 0.02% Glucose (1.6 μgm/ml): 30%
- % inhibition of growth at 2% Glucose (1.6 μgm/ml): 70%
- % inhibition of growth at 0.02% Glucose (3.2 μgm/ml): 70%
- % inhibition of growth at 2% Glucose (3.2 μgm/ml): 90%
- % inhibition of growth at 0.02% Glucose (6.4 μgm/ml): 78%
- % inhibition of growth at 2% Glucose (6.4 μgm/ml): 96%

SMILES: CO[C@H]1/C=C/O[C@@]2(C)Oc3c(C)c(O)c4c(O)c(c(/C=N/N5CCN(C)CC5)c(O)c4c3C2=O)NC(=O)/C(C)=C\C=C\[C@H](C)[C@H](O)[C@@H](C)[C@@H](O)[C@@H](C)[C@H](OC(C)=O)[C@@H]1C [Rifampicin]
- % inhibition of growth at 0.02% Glucose (0.25 μgm/ml): 9%
- % inhibition of growth at 2% Glucose (0.25 μgm/ml): 39%
- % inhibition of growth at 0.02% Glucose (0.5 μgm/ml): 17%
- % inhibition of growth at 2% Glucose (0.5 μgm/ml): 58%
- % inhibition of growth at 0.02% Glucose (1.0 μgm/ml): 29%
- % inhibition of growth at 2% Glucose (1.0 μgm/ml): 70%
- % inhibition of growth at 0.02% Glucose (2.0 μgm/ml): 68%
- % inhibition of growth at 2% Glucose (2.0 μgm/ml): 89%
- reduction of inhibition of growth in the presence of the promoter under a stationary or a starved state (stationary or starved state): about 20%
